Data reported in patent US12404295B2, “(Hetero)aryl-methyl-thio-beta-D-galactopyranoside derivatives” (Idorsia Pharmaceuticals Ltd, priority 2019, dated 2025).
Like-named read-outs stand apart in the source and are kept apart here.

How the values were obtained:
[1] = biological target: human Gal-1 (hGal-1) (Homo sapiens (Human), UniProt P09382); assay: competitive binding assay: biotinylated hGal-1 binding to microplate-adsorbed asialofetuin (ASF); conditions: Table 15; read-out: IC50 (Galectin-1 inhibition)
Chain of human Gal-1 (hGal-1) (P09382 whole entry): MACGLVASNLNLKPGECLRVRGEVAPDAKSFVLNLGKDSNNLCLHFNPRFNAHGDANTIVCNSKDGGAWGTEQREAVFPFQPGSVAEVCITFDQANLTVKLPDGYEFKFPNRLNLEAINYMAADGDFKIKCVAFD
Procedure, shortened: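 Spectrophotometric competition readout: after compound and biotinylated hGal-1 (300-1000 ng/mL) sit 3 h at 4° C on adsorbed asialofetuin, streptavidin-peroxidase (1 h, 4° C) and ABTS reveal residual binding. Reported IC50 values are means of repeat runs.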

[2] = biological target: human Gal-3 (hGal-3) (Homo sapiens (Human), UniProt P17931); assay: competitive binding assay: biotinylated hGal-3 binding to microplate-adsorbed asialofetuin (ASF)
Chain of human Gal-3 (hGal-3) (P17931 whole entry): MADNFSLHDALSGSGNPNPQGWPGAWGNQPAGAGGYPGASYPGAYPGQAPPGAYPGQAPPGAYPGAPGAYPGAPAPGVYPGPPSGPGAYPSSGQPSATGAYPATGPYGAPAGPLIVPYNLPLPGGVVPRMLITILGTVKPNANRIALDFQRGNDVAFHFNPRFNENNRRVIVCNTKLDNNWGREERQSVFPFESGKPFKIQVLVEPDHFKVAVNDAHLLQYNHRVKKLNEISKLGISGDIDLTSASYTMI
Procedure, shortened: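 3 h, 4 °C binding step; cold buffer wash; streptavidin-HRP 80 ng/mL, 1 h, 4 °C; ABTS colorimetric read-out. Compounds diluted serially in DMSO. IC50 reported as mean of repeat runs.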

[3] = Table 9, 2-OMe-Gal inhibitors, read-out: IC50 (Gal-3 inhibition)
[4] = Gal-3 inhibition, binding of biotinylated hGal-3 to ASF, mean values, read-out: IC50
[5] = Table 10, 2-OMe-Gal inhibitors, read-out: IC50 (Gal-3 inhibition)

| IC50 [1] [nM] | IC50 [2, 3] [nM] | IC50 [2, 4] [nM] | IC50 [2, 5] [nM] | SMILES |
| --- | --- | --- | --- | --- |
| 870 |  | 110 |  | CCO[C@@H]1[C@@H](n2cc(-c3cc(F)c(F)c(F)c3)nn2)[C@@H](O)[C@@H](CO)O[C@H]1S[C@H](c1ncccc1C)C1(O)CCC(F)(F)CC1 [Example 2.44.126R.II., (2R,3R,4S,5R,6S)-6-(((R)-(4,4-Difluoro-1-hydroxycyclohexyl)(3-methylpyridin-2-yl)methyl)thio)-5-ethoxy-2-(hydroxymethyl)-4-(4-(3,4,5-trifluorophenyl)-1H-1,2,3-triazol-1-yl)tetrahydro-2H-pyran-3-ol] |
| 26500 |  | 3350 |  | Cc1cccnc1[C@H](S[C@@H]1O[C@H](CO)[C@H](O)[C@H](n2cc(-c3cc(F)c(F)c(F)c3)nn2)[C@H]1O)C1(O)CCC(F)(F)CC1 [Example 2.44.126S., (2S,3R,4S,5R,6R)-2-(((S)-(4,4-Difluoro-1-hydroxycyclohexyl)(3-methylpyridin-2-yl)methyl)thio)-6-(hydroxymethyl)-4-(4-(3,4,5-trifluorophenyl)-1H-1,2,3-triazol-1-yl)tetrahydro-2H-pyran-3,5-diol] |
| 24300 |  | 980 |  | CCO[C@@H]1[C@@H](n2cc(-c3cc(F)c(F)c(F)c3)nn2)[C@@H](O)[C@@H](CO)O[C@H]1S[C@@H](c1ncccc1C)C1(O)CCC(F)(F)CC1 [Example 2.44.126S.II., (2R,3R,4S,5R,6S)-6-(((S)-(4,4-Difluoro-1-hydroxycyclohexyl)(3-methylpyridin-2-yl)methyl)thio)-5-ethoxy-2-(hydroxymethyl)-4-(4-(3,4,5-trifluorophenyl)-1H-1,2,3-triazol-1-yl)tetrahydro-2H-pyran-3-ol] |
| 350 |  | 90 |  | Cc1nccnc1C(S[C@@H]1O[C@H](CO)[C@H](O)[C@H](n2cc(-c3cc(F)c(F)c(F)c3)nn2)[C@H]1O)C1(O)CCC(F)(F)CC1 (stereo partly drawn) [Example 2.44.129., (2S,3R,4S,5R,6R)-2-(((4,4-Difluoro-1-hydroxycyclohexyl)(3-methylpyrazin-2-yl)methyl)thio)-6-(hydroxymethyl)-4-(4-(3,4,5-trifluorophenyl)-1H-1,2,3-triazol-1-yl)tetrahydro-2H-pyran-3,5-diol] |
| 200 |  | 30 |  | Cc1nccnc1[C@@H](S[C@@H]1O[C@H](CO)[C@H](O)[C@H](n2cc(-c3cc(F)c(F)c(F)c3)nn2)[C@H]1O)C1(O)CCC(F)(F)CC1 [Example 2.44.129R., (2S,3R,4S,5R,6R)-2-(((R)-(4,4-Difluoro-1-hydroxycyclohexyl)(3-methylpyrazin-2-yl)methyl)thio)-6-(hydroxymethyl)-4-(4-(3,4,5-trifluorophenyl)-1H-1,2,3-triazol-1-yl)tetrahydro-2H-pyran-3,5-diol] |
| 300 | 50 |  |  | CO[C@@H]1[C@@H](n2cc(-c3cc(F)c(F)c(F)c3)nn2)[C@@H](O)[C@@H](CO)O[C@H]1S[C@H](c1nccnc1C)C1(O)CCC(F)(F)CC1 [Example 2.44.129R.I., (2R,3R,4S,5R,6S)-6-(((R)-(4,4-Difluoro-1-hydroxycyclohexyl)(3-methylpyrazin-2-yl)methyl)thio)-2-(hydroxymethyl)-5-methoxy-4-(4-(3,4,5-trifluorophenyl)-1H-1,2,3-triazol-1-yl)tetrahydro-2H-pyran-3-ol [1,3-di-deoxy-1-((4,4-difluoro-1-hydroxy-cyclohexan-1-yl)-(3-(-methyl)pyrazin-2-yl)methyl-(R)-thio)-2-O-methyl-3-[4-(3,4,5-trifluorophenyl)-1H-1,2,3-triazol-1-yl]-b-D-galactopyranoside]] |
| 6300 |  | 1480 |  | Cc1nccnc1[C@H](S[C@@H]1O[C@H](CO)[C@H](O)[C@H](n2cc(-c3cc(F)c(F)c(F)c3)nn2)[C@H]1O)C1(O)CCC(F)(F)CC1 [Example 2.44.129S., (2S,3R,4S,5R,6R)-2-(((S)-(4,4-Difluoro-1-hydroxycyclohexyl)(3-methylpyrazin-2-yl)methyl)thio)-6-(hydroxymethyl)-4-(4-(3,4,5-trifluorophenyl)-1H-1,2,3-triazol-1-yl)tetrahydro-2H-pyran-3,5-diol] |
| 130 |  | 60 |  | CCc1c(C(S[C@@H]2O[C@H](CO)[C@H](O)[C@H](n3cc(-c4cc(F)c(F)c(F)c4)nn3)[C@H]2O)C2(O)CCC(F)(F)CC2)noc1C1CC1 (stereo partly drawn) [Example 2.44.130., (2S,3R,4S,5R,6R)-2-(((5-Cyclopropyl-4-ethylisoxazol-3-yl)(4,4-difluoro-1-hydroxycyclohexyl)methyl)thio)-6-(hydroxymethyl)-4-(4-(3,4,5-trifluorophenyl)-1H-1,2,3-triazol-1-yl)tetrahydro-2H-pyran-3,5-diol] |
| 160 |  | 20 |  | CCc1c([C@@H](S[C@@H]2O[C@H](CO)[C@H](O)[C@H](n3cc(-c4cc(F)c(F)c(F)c4)nn3)[C@H]2O)C2(O)CCC(F)(F)CC2)noc1C1CC1 [Example 2.44.130R., (2S,3R,4S,5R,6R)-2-(((R)-(5-Cyclopropyl-4-ethylisoxazol-3-yl)(4,4-difluoro-1-hydroxycyclohexyl)methyl)thio)-6-(hydroxymethyl)-4-(4-(3,4,5-trifluorophenyl)-1H-1,2,3-triazol-1-yl)tetrahydro-2H-pyran-3,5-diol] |
| 160 |  |  | 60 | CCc1c([C@@H](S[C@@H]2O[C@H](CO)[C@H](O)[C@H](n3cc(-c4cc(F)c(F)c(F)c4)nn3)[C@H]2OC)C2(O)CCC(F)(F)CC2)noc1C1CC1 [Example 2.44.130R.I.] |
| 5650 |  | 1850 |  | CCc1c([C@H](S[C@@H]2O[C@H](CO)[C@H](O)[C@H](n3cc(-c4cc(F)c(F)c(F)c4)nn3)[C@H]2O)C2(O)CCC(F)(F)CC2)noc1C1CC1 [Example 2.44.130S., (2S,3R,4S,5R,6R)-2-(((S)-(5-Cyclopropyl-4-ethylisoxazol-3-yl)(4,4-difluoro-1-hydroxycyclohexyl)methyl)thio)-6-(hydroxymethyl)-4-(4-(3,4,5-trifluorophenyl)-1H-1,2,3-triazol-1-yl)tetrahydro-2H-pyran-3,5-diol] |
| 100 |  |  | 130 | CO[C@@H]1[C@@H](n2cc(-c3cc(F)c(F)c(F)c3)nn2)[C@@H](O)[C@@H](CO)O[C@H]1S[C@H](c1noc(C2CC2)c1CC(C)C)C1(O)CCC(F)(F)CC1 [Example 2.44.131R.I., (2R,3R,4S,5R,6S)-6-(((R)-(5-Cyclopropyl-4-isobutylisoxazol-3-yl)(4,4-difluoro-1-hydroxycyclohexyl)methyl)thio)-2-(hydroxymethyl)-5-methoxy-4-(4-(3,4,5-trifluorophenyl)-1H-1,2,3-triazol-1-yl)tetrahydro-2H-pyran-3-ol] |
| 13700 |  | 9740 |  | CC(C)Cc1c([C@H](S[C@@H]2O[C@H](CO)[C@H](O)[C@H](n3cc(-c4cc(F)c(F)c(F)c4)nn3)[C@H]2O)C2(O)CCC(F)(F)CC2)noc1C1CC1 [Example 2.44.131S., (2S,3R,4S,5R,6R)-2-(((S)-(5-Cyclopropyl-4-isobutylisoxazol-3-yl)(4,4-difluoro-1-hydroxycyclohexyl)methyl)thio)-6-(hydroxymethyl)-4-(4-(3,4,5-trifluorophenyl)-1H-1,2,3-triazol-1-yl)tetrahydro-2H-pyran-3,5-diol] |
| 160 |  | 100 |  | CC(C)c1cccnc1C(S[C@@H]1O[C@H](CO)[C@H](O)[C@H](n2cc(-c3cc(F)c(F)c(F)c3)nn2)[C@H]1O)C1(O)CCC(F)(F)CC1 (stereo partly drawn) [Example 2.44.132., (2S,3R,4S,5R,6R)-2-(((4,4-Difluoro-1-hydroxycyclohexyl)(3-isopropylpyridin-2-yl)methyl)thio)-6-(hydroxymethyl)-4-(4-(3,4,5-trifluorophenyl)-1H-1,2,3-triazol-1-yl)tetrahydro-2H-pyran-3,5-diol] |
| 50 |  | 50 |  | CC(C)c1cccnc1[C@@H](S[C@@H]1O[C@H](CO)[C@H](O)[C@H](n2cc(-c3cc(F)c(F)c(F)c3)nn2)[C@H]1O)C1(O)CCC(F)(F)CC1 [Example 2.44.132R., (2S,3R,4S,5R,6R)-2-(((R)-(4,4-Difluoro-1-hydroxycyclohexyl)(3-isopropylpyridin-2-yl)methyl)thio)-6-(hydroxymethyl)-4-(4-(3,4,5-trifluorophenyl)-1H-1,2,3-triazol-1-yl)tetrahydro-2H-pyran-3,5-diol] |
| 100 | 120 |  |  | CO[C@@H]1[C@@H](n2cc(-c3cc(F)c(F)c(F)c3)nn2)[C@@H](O)[C@@H](CO)O[C@H]1S[C@H](c1ncccc1C(C)C)C1(O)CCC(F)(F)CC1 [Example 2.44.132R.I., (2R,3R,4S,5R,6S)-6-(((R)-(4,4-Difluoro-1-hydroxycyclohexyl)(3-isopropylpyridin-2-yl)methyl)thio)-2-(hydroxymethyl)-5-methoxy-4-(4-(3,4,5-trifluorophenyl)-1H-1,2,3-triazol-1-yl)tetrahydro-2H-pyran-3-ol] |

| SMILES | IC50 [1] [nM] | IC50 [2, 3] [nM] | IC50 [2, 4] [nM] | IC50 [2, 5] [nM] |
| --- | --- | --- | --- | --- |
| CO[C@@H]1[C@@H](n2cc(-c3cc(F)c(F)c(F)c3)nn2)[C@@H](O)[C@@H](CO)O[C@H]1S[C@H](c1ncccc1C)C1(O)CCC(F)(F)CC1 [Example 2.44.126R.I., (2R,3R,4S,5R,6S)-6-(((R)-(4,4-Difluoro-1-hydroxycyclohexyl)(3-methylpyridin-2-yl)methyl)thio)-2-(hydroxymethyl)-5-methoxy-4-(4-(3,4,5-trifluorophenyl)-1H-1,2,3-triazol-1-yl)tetrahydro-2H-pyran-3-ol] | 680 | 70 |  |  |
